Data on three compounds can be found in publication PMC10837130, “ATP-dependent conformational dynamics in a photoactivated adenylate cyclase revealed by fluorescence spectroscopy and small-angle X-ray scattering” (Communications Biology, 2024).

Assay type in all cases: binding
Experiment [1] addresses T1, OaPAC (photoactivated adenylate cyclase) (Oxynema acuminatum, UniProt K9TLZ5).
T1 sequence (K9TLZ5 1-366): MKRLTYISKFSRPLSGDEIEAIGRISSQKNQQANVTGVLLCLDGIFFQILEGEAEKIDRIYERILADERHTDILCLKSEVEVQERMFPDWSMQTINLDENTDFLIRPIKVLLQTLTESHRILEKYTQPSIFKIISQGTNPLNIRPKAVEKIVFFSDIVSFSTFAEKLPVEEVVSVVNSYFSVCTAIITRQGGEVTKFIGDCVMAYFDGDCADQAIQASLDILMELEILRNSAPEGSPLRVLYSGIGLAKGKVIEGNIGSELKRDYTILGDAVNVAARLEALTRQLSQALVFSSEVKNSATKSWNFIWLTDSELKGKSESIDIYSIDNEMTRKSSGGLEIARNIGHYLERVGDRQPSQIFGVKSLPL
In words: ITC (also nanoDSF, SAXS titration, CD). Details: gene Oscil6304_3613; Full-length OaPAC (366 aa, homodimer), dark-adapted state. A general note: In DSF a fluorescence change marks the thermal transition of the protein.

Experiment [2] deals with T1, OaPAC (photoactivated adenylate cyclase). The experiment is described as follows: ITC (also nanoDSF, DSC, flavin-emission thermal shift, SAXS). Details: gene Oscil6304_3613; Full-length OaPAC (366 aa, homodimer), dark-adapted state.
For experiment [3] the target is unchanged. In words: steady-state fluorescence anisotropy; stopped-flow fluorescence (KD […]). The arrangement: gene Oscil6304_3613; Full-length OaPAC (366 aa, homodimer). (Polarisation of emitted light reports the rotation of a fluorescent probe.)

As for `Nc1ncnc2c1ncn2[C@@H]1O[C@H](COP(=O)(O)OP(=O)(O)OP(=O)(O)O)[C@@H](O)[C@H]1O` [ATP], binding in experiment [1] was put at a Kd of 3.24 ± 1.9 µM. On to `Nc1ncnc2c1ncn2[C@@H]1O[C@H](COP(=O)(O)CP(=O)(O)OP(=O)(O)O)[C@@H](O)[C@H]1O` [ApCpp, Adenosine-5’-[(α,β)-methyleno]triphosphate], for which, in experiment [2], the dissociation constant Kd – broadly, the equilibrium constant for the complex coming apart – was 5.92 ± 5.06 µM. `CNc1ccccc1C(=O)O[C@H]1[C@@H](O)[C@H](n2cnc3c(N)ncnc32)O[C@@H]1CO[P@@](=O)(O)O[P@](=O)(O)OP(=O)(O)O` [mantATP]: binding in experiment [3] was characterised by a dissociation constant (Kd) of 2.25 ± 0.4 µM.
